This note sets out measurements from patent publication US20130059879A1, “Small Molecule Inhibitors of PFKFB3 and Glycolytic Flux and Their Methods of Use as Anti-Cancer Therapeutics” (UNIVERSITY OF LOUISVILLE RESEARCH FOUNDATION, INC., priority 2010, published 2013).

Structures can show the parent of a compound that is named as a salt. Where two headings read alike, the source gives them in different places. Some results are limits rather than exact numbers.

The nature of data set [1]: Microsomal stability in human liver microsomes. It counts as in vitro ADME. The method, then:
Microsomal stability in vitro in different biologic media (liver microsomes, S9 fraction, hepatocytes) and species is ascertained to evaluate the rate at which a compound undergoes metabolism in the experimental in vitro conditions. Results for some compounds of the invention after a 60 minutes incubation period in human liver microsomes are shown in the Table 6 below. […] Experimental conditions are briefly described here: the stability in human liver microsomes of several compounds was done over […] at 37° C. using pooled mixed gender human liver microsomes. These liver microsomes were prepared at 1.0 mg/ml of microsomal protein in a 100 mM potassium phosphate pH 7.4 buffer with 1 mM NADPH. The media was incubated at 37° C. with the compound in solution in DMSO. The concentration of the compound was followed by LC/MS-MS as a function of time. Samples were assayed at t=0, 15, 30, and 60 minutes. Testosterone was used as a positive control. The same experiment was performed with mouse, rat or dog liver microsomes instead of human liver microsomes.

Data set [2] deals with Calu-6. As to the kind of experiment: Cancer cell proliferation, Alamar Blue assay, 72 hours. It counts as cell-based. The method, then: (§1) The ability of the compounds described herein to kill or inhibit the proliferation of cancer cells was measured using either the MTT assay, or the Alamar Blue assay, or the Cell Titer Glow® assay using 48 or 72 hours exposure. […] The procedures are briefly described below. Cells of the desired tumor cell line were plated at 2×10^5 cells/ml in 96 well plates. Twice the indicated concentrations of the compounds of the invention were added to cells the following day in an equal volume of media. 72 hours later, cells were lysed and subjected to ATP determination using the CellTiter Glo-Luminescent Cell Viability Assay kit (Promega, Madison, Wis.). Experiments were done in triplicate. When using the MTT assay or the Alamar blue assay, the experimental conditions are essentially similar; at the end of the incubation period, 20 microliters of the MTT solution is added per well and the samples are incubated for an additional four hours, rinsed, and the absorbance at 570 nm measured. […] Table 2 lists the IC50 values for the compounds of the invention in several cell lines including Jurkat, Calu-6, NCI-H82, U937, HCT-116, and MDA-MB-231 cancer cell lines.
On the technique in general: Alamar Blue is a resazurin reagent that responds to reducing activity.

Data set [3] deals with HCT-116. Described as above. It counts as cell-based. The method, then: as §1
For data set [4], the system named is NCI-H82. The data set is described as above. It counts as cell-based. As to the method:
as §1

The test system of data set [5] is U937. The description is as above. It counts as cell-based. As to the method:
as §1

The subject of data set [6] is Jurkat. The data set is described as above. It counts as cell-based. The method, then: as §1
For data set [7], the system named is MDA-MB-231. Described as above. It counts as cell-based. Conditions: Homo sapiens. As to the method: as §1
Where [8] appears, read: 60 min incubation, 1.0 mg/ml microsomal protein, 1 mM NADPH, 37° C.
Where [9] appears, read: Homo sapiens, NCI-H82, read-out: IC50 NCl-H82.

Take `COc1ccc(C(=O)c2cc3c(ccc4ccccc43)[nH]2)cc1` [ACT-PFK-093, (3H-Benzo[e]indol-2-yl)-(4-methoxy-phenyl)-methanone]: the “HLM, Mean metabolized (%)” value in data set [1] (0 min) stood at 0.0%; in data set [1] (setting [8]) it was 95%.

With `O=C(c1ccncc1)c1cc2c(ccc3ccccc32)[nH]1` [ACT-PFK-095HCl, HCl salt of (3H-Benzo[e]indol-2-yl)-pyridin-4-yl-methanone], the IC50 (usually the concentration at which inhibition is half-maximal) came out at 390 nM in data set [2]; 850 nM in data set [3]; 305 nM in data set [4] (read-out: IC50 NCl-H82); 20 nM in data set [5]; 440 nM in data set [6].

In the case of `O=C(c1cc2c(ccc3ccccc32)[nH]1)c1ccccc1O` [ACT-PFK-099, (3H-Benzo[e]indol-2-yl)-(2-hydroxy-phenyl)-methanone], the IC50 in data set [2] (Homo sapiens, Calu-6) was 230 nM; in data set [3] (Homo sapiens, HCT-116), 495 nM; in data set [4] (setting [9]) it was 680 nM; in data set [5] (Homo sapiens, U-937) it was 76 nM; in data set [6] (Homo sapiens, Jurkat), 410 nM.

Turning to `Cc1cc2[nH]c(C(=O)c3ccccc3)cc2c2ccccc12` [ACT-PFK-101, (5-Methyl-3H-benzo[e]indol-2-yl)-phenyl-methanone], the IC50 was more than 100000 nM in data set [2] (Homo sapiens, Calu-6); more than 100000 nM in data set [4] (setting [9]); more than 100000 nM in data set [5] (Homo sapiens, U-937); more than 100000 nM in data set [6] (Homo sapiens, Jurkat).

In the case of `O=C(c1ccccc1)c1cc2c(ccc3cccnc32)[nH]1` [ACT-PFK-102, Phenyl-(7H-pyrrolo[2,3-h]quinolin-8-yl)-methanone], the half-inhibitory concentration (IC50) in data set [2] (Homo sapiens, Calu-6) is more than 100000 nM; in data set [4] (setting [9]), more than 100000 nM; in data set [5] (Homo sapiens, U-937), more than 100000 nM; in data set [6] (Homo sapiens, Jurkat), more than 100000 nM.

On to `O=C(c1cccc(O)c1)c1cc2c(ccc3ccccc32)[nH]1` [ACT-PFK-103, (3H-Benzo[e]indol-2-yl)-(3-hydroxy-phenyl)-methanone], for which the IC50 in data set [2] (Homo sapiens, Calu-6) is 130 nM; in data set [3] (Homo sapiens, HCT-116) it was 360 nM; in data set [4] (setting [9]), 405 nM; in data set [6] (Homo sapiens, Jurkat), 110 nM; in data set [7] it was 6400 nM.

As to `O=C(c1ccccc1)c1cc2c(cc(F)c3ccccc32)[nH]1` [ACT-PFK-104, (5-Fluoro-3H-benzo[e]indol-2-yl)-phenyl-methanone], the IC50 in data set [2] (Homo sapiens, Calu-6) was 200 nM; in data set [3] (Homo sapiens, HCT-116), 320 nM; in data set [4] (setting [9]), 310 nM; in data set [6] (Homo sapiens, Jurkat), 118 nM; in data set [7], 5950 nM. Besides, the “HLM, Mean metabolized (%)” value was 0.0% in data set [1] (0 min) and 80% in data set [1] (setting [8]).

In the case of `O=C(c1ccnc(Cl)c1)c1cc2c(ccc3ccccc32)[nH]1` [ACT-PFK-105, (3H-benzo[e]indol-2-yl)-(2-chloro-pyridin-4-yl)-methanone], the IC50 was 140 nM in data set [2] (Homo sapiens, Calu-6); 355 nM in data set [3] (Homo sapiens, HCT-116); 395 nM in data set [4] (setting [9]); 70 nM in data set [5] (Homo sapiens, U-937); 115 nM in data set [6] (Homo sapiens, Jurkat); 7400 nM in data set [7]. Further, the “HLM, Mean metabolized (%)” value amounted to 0.0% in data set [1] (0 min) and 51.4% in data set [1] (setting [8]).

`O=C(c1cc[n+]([O-])cc1)c1cc2c(ccc3ccccc32)[nH]1` [ACT-PFK-106, (3H-benzo[e]indol-2-yl)-(1-oxy-pyridin-4-yl)-methanone]: the IC50 in data set [2] (Homo sapiens, Calu-6) was determined as 8900 nM; in data set [3] (Homo sapiens, HCT-116), 38500 nM; in data set [4] (setting [9]), 15000 nM; in data set [5] (Homo sapiens, U-937), 3150 nM; in data set [6] (Homo sapiens, Jurkat) it was 21000 nM; in data set [7], 28000 nM.

For the molecule `COC(=O)c1ccc(C(=O)c2cc3c(ccc4ccccc43)[nH]2)cc1` [ACT-PFK-110, 4-(3H-Benzo[e]indole-2-carbonyl)-benzoic acid methyl ester], the IC50 is 59500 nM in data set [2] (Homo sapiens, Calu-6); more than 100000 nM in data set [3] (Homo sapiens, HCT-116); more than 100000 nM in data set [4] (setting [9]); more than 100000 nM in data set [5] (Homo sapiens, U-937); more than 100000 nM in data set [6] (Homo sapiens, Jurkat); more than 100000 nM in data set [7].

Regarding `COC(=O)c1cc(C(=O)c2cc3c(ccc4ccccc43)[nH]2)ccc1OCc1ccccc1` [ACT-PFK-113, 5-(3H-Benzo[e]indole-2-carbonyl)-2-benzyloxy-benzoic acid methyl ester], the IC50 in data set [2] (Homo sapiens, Calu-6) is 28500 nM; in data set [3] (Homo sapiens, HCT-116), more than 100000 nM; in data set [4] (setting [9]), more than 100000 nM; in data set [5] (Homo sapiens, U-937), 26800 nM; in data set [6] (Homo sapiens, Jurkat) it was 28000 nM; in data set [7] it was more than 100000 nM.

Consider `O=C(c1ccc(OCc2ccccc2)c(C(=O)O)c1)c1cc2c(ccc3ccccc32)[nH]1` [ACT-PFK-114, 5-(3H-Benzo[e]indole-2-carbonyl)-2-benzyloxy-benzoic acidmethanone], for which the IC50 is more than 100000 nM in data set [2] (Homo sapiens, Calu-6); more than 100000 nM in data set [3] (Homo sapiens, HCT-116); more than 100000 nM in data set [4] (setting [9]); more than 100000 nM in data set [5] (Homo sapiens, U-937); more than 100000 nM in data set [6] (Homo sapiens, Jurkat); more than 100000 nM in data set [7].

As for `O=C(c1cccc(CO)c1)c1cc2c(ccc3ccccc32)[nH]1` [ACT-PFK-120, (3H-Benzo[e]indol-2-yl)-(3-hydroxymethyl-phenyl)-methanone], the IC50 was found to be 55 nM in data set [2] (Homo sapiens, Calu-6); 270 nM in data set [4] (setting [9]); 155 nM in data set [6] (Homo sapiens, Jurkat).

`O=C(c1cc2c(cc(F)c3ccccc32)[nH]1)C1CCCCC1` [ACT-PFK-121, Cyclohexyl-(5-fluoro-3H-benzo[e]indol-2-yl)-methanone]: the IC50 in data set [2] (Homo sapiens, Calu-6) was 79 nM; in data set [4] (setting [9]), 335 nM; in data set [6] (Homo sapiens, Jurkat), 115 nM.

With `O=C(c1ccc(O)c(F)c1)c1cc2c(cc(F)c3ccccc32)[nH]1` [ACT-PFK-122, (5-Fluoro-3H-benzo[e]indol-2-yl)-(3-fluoro-4-hydroxy-phenyl)-methanone], the IC50 in data set [2] (Homo sapiens, Calu-6) is 70 nM; in data set [4] (setting [9]), 320 nM; in data set [6] (Homo sapiens, Jurkat), 235 nM.

For `COc1cccc(C(O)c2cc3c(ccc4ccccc43)[nH]2)c1` (stereo not shown) [ACT-PFK-124, (3H-Benzo[e]indol-2-yl)-(3-methoxy-phenyl)-methanol], the IC50 was determined as 10400 nM in data set [2] (Homo sapiens, Calu-6); 11200 nM in data set [4] (setting [9]); 8800 nM in data set [6] (Homo sapiens, Jurkat).

As to `OC(c1ccncc1)c1cc2c(ccc3ccccc32)[nH]1` (stereo not shown) [ACT-PFK-125, (3H-Benzo[e]indol-2-yl)-pyridin-4-yl-methanol], the IC50 is 39500 nM in data set [2] (Homo sapiens, Calu-6); 20300 nM in data set [4] (setting [9]); 22700 nM in data set [6] (Homo sapiens, Jurkat).

On to `O=C(Nc1ccccc1)c1cc2c(ccc3ccccc32)[nH]1` [ACT-PFK-126, 3H-Benzo[e]indole-2-carboxylic acid phenylamide], for which the IC50 was determined as 1100 nM in data set [2] (Homo sapiens, Calu-6); 840 nM in data set [4] (setting [9]); 850 nM in data set [6] (Homo sapiens, Jurkat).

Turning to `COc1cccc(NC(=O)c2cc3c(ccc4ccccc43)[nH]2)c1` [ACT-PFK-127, 3H-Benzo[e]indole-2-carboxylic acid (3-methoxy-phenyl)-amide], the IC50 in data set [2] (Homo sapiens, Calu-6) stood at 1020 nM; in data set [4] (setting [9]) it was 755 nM; in data set [6] (Homo sapiens, Jurkat) it was 780 nM.

As for `CN(C)c1ccc(C(=O)c2cc3c(ccc4ccccc43)[nH]2)cc1` [ACT-PFK-128, (3H-Benzo[e]indol-2-yl)-(4-dimethylamino-phenyl)-methanone], the IC50 in data set [2] (Homo sapiens, Calu-6) was more than 100000 nM; in data set [4] (setting [9]), more than 100000 nM; in data set [6] (Homo sapiens, Jurkat) it was more than 100000 nM.

Regarding `COc1cc(C(=O)c2cc3c(ccc4ccccc43)[nH]2)ccc1N` [ACT-PFK-129, (4-Amino-3-methoxy-phenyl)-(3H-benzo[e]indol-2-yl)-methanone], the IC50 in data set [2] (Homo sapiens, Calu-6) was determined as 355 nM; in data set [4] (setting [9]), 370 nM; in data set [6] (Homo sapiens, Jurkat), 230 nM.

For `COc1cc(C(=O)c2cc3c(cc(O)c4ccccc43)[nH]2)ccc1N` [ACT-PFK-130, (4-Amino-3-methoxy-phenyl)-(5-hydroxy-3H-benzo[e]indol-2-yl)-methanone], the IC50 turned out to be 1650 nM in data set [2] (Homo sapiens, Calu-6); 1450 nM in data set [4] (setting [9]); 1130 nM in data set [6] (Homo sapiens, Jurkat).

On to `COc1cc(C(=O)c2cc3c(cc(OC)c4ccccc43)[nH]2)ccc1N` [ACT-PFK-131, (4-Amino-3-methoxy-phenyl)-(5-methoxy-3H-benzo[e]indol-2-yl)-methanone], for which the IC50 in data set [2] (Homo sapiens, Calu-6) is more than 100000 nM; in data set [4] (setting [9]), more than 100000 nM; in data set [6] (Homo sapiens, Jurkat), more than 100000 nM.

Turning to `CS(=O)(=O)Nc1ccc(C(=O)c2cc3c(ccc4ccccc43)[nH]2)cc1` [ACT-PFK-133, N-[4-(3H-Benzo[e]indole-2-carbonyl)-phenyl]-methanesulfonamide], the IC50 in data set [2] (Homo sapiens, Calu-6) was 40800 nM; in data set [4] (setting [9]), 11900 nM; in data set [6] (Homo sapiens, Jurkat), 2350 nM.

As to `Nc1ccc(NC(=O)c2cc3c(ccc4ccccc43)[nH]2)cc1` [ACT-PFK-134, 3H-Benzo[e]indole-2-carboxylic acid (4-amino-phenyl)-amide], the IC50 in data set [2] (Homo sapiens, Calu-6) came to 2450 nM; in data set [4] (setting [9]), 3450 nM; in data set [6] (Homo sapiens, Jurkat), 3300 nM.
